Data as given in patent publication US20190256559A1, “PEPTIDOMIMETIC MACROCYCLES AND USES THEREOF” (AILERON THERAPEUTICS, INC., priority 2015, published 2019).
“Also recorded” adds a separate entry of the source. Where a SMILES comes first, the peptide text is derived from it. Bridges are numbered along the chain shown (N, C = ends). [ ]: non-standard residue; d: D form. R8 = C=CCCCCCC[C@@](C)(N)C(=O)O; S5 = C=CCCC[C@](C)(N)C(=O)O

What was measured:
[1] = test system: liquid cancer cell lines with mutant p53; experiment: Multiplexed cytotoxicity assay: cell proliferation/cytotoxicity (relative cell count), 72 h, cell lines with mutant p53; assay type: cell-based
Procedure: The objective of this study was to concurrently evaluate peptide 1-induced cytotoxicity, p21 up-regulation and caspase-3 activation in multiple liquid cancer cell cell lines characterized as having either wild-type or mutated p53 in order to determine whether the cytotoxicity is PD-mediated.
(§1) Cell lines from hematologic liquid cancer cells, characterized for p53 mutant/wild-type status, were seeded into 384-well plates and incubated in a humidified atmosphere of 5% CO2 at 37° C. Peptide 1 was serially diluted and assayed over 10 concentrations, up to 30 μM, in a final assay concentration of 0.1% DMSO. Treatment was added 24 hours post cell seeding, when a time zero untreated cell plate was also generated to determine the number of doublings in the 72 hour assay period. About one hundred cells per well were evaluated, with each test condition run in duplicate wells. After a 72 hour incubation period, cells were fixed and stained with fluorescently labeled antibody and nuclear dye. In the same wells, nuclei were assessed for toxicity (dye uptake) by automated fluorescence microscopy; apoptosis was assayed by elevations in anti-active caspase-3 antibody; and cell cycle arrest was assayed by elevations in anti-p21 monoclonal antibody EA10.
(§2) Cell proliferation was measured by relative cell count, which was expressed as percent of control. […]

[2] = test system: human peripheral blood lymphocyte
[3] = test system: hematologic cancer cell lines with wild-type p53; experiment: Multiplexed cytotoxicity assay: cell proliferation/cytotoxicity (relative cell count), 72 h, cell lines with wild-type p53; assay type: cell-based; conditions: liquid cancer cells expressing WT p53 protein
activated caspase-3 = experiment: Multiplexed cytotoxicity assay: activated caspase-3 (apoptosis) induction in p53 wild-type hematopoietic cell lines; assay type: cell-based
Procedure: as §1
(§3) Cell proliferation was measured by relative cell count, which was expressed as percent of control.

[4] = Preclinical GLP safety studies in rodents and monkeys (overall profile); assay type: in vivo
Text: Genotoxicity, gastrointestinal toxicity, cardiotoxicity, and immunogenicity were not observed.

[5] = test system: cytochrome P450 (CYP) isoforms; experiment: In vitro cytochrome P450 inhibition; assay type: in vitro ADME
Text: (§4) Inhibition or induction of cytochrome P450 (CYP) enzymes by peptide 1 appears to be negligible at clinically-relevant concentrations, although interactions are possible at high exposures of peptide 1 with drugs that are predominantly cleared by hepatobiliary transporters.
(§5) Based on these findings, the potential of clinically relevant drug-drug interactions for concomitant medications that are cleared through CYP-mediated mechanisms can be low.

[6] = test system: cryopreserved hepatocytes; experiment: In vitro metabolite profile / stability in cryopreserved hepatocytes; assay type: in vitro ADME, mouse, rat, monkey, and human
Text: (§6) Proteolysis is the major biotransformation pathway of peptide 1. […] The predominant metabolite was also observed in the plasma in both the rat and monkey 4-week GLP toxicology studies, with adequate exposures in these studies to provide characterization of its impact on the overall safety profile of peptide 1. […] Accumulation of the predominant metabolite was not observed with repeated twice-weekly dosing in rats or monkeys.

[7] = 4-week rat GLP toxicity study, twice-weekly IV dosing (toxicity and toxicokinetics); assay type: in vivo, rats
Text: (§7) The 4-week multiple-dose GLP studies in rats and monkeys utilized twice-weekly IV dosing of peptide 1. The studies provided dose- and exposure-related assessments during both dosing and recovery periods, and results were utilized to define the maximum tolerated doses (MTD) and estimate the severely toxic dose for 10% (STD10) of rats and the highest non-severely toxic dose (HNSTD) in monkeys. All gross and microscopic signs of intolerance (e.g., reduced organ weights, sporadic findings of multi-tissue hemorrhage and hepatic necrosis) and changes in serum chemistry parameters were considered as secondary to red blood cell (RBC), platelet and/or white blood cell (WBC) depletions or anorexia and dehydration in both species.

[8] = test system: MV 4; 11 human leukemia xenograft; experiment: MV 4;11 human leukemia (AML) xenograft model, survival; assay type: in vivo; conditions: mice, 25 mg/kg, six bi-weekly doses
Procedure: In another study, MV 4; 11 human leukemia xenograft model was used in mice to assess the ability of peptide 1 to inhibit tumor growth and improve overall survival in AML, a highly aggressive liquid tumor. In this study, 25 mg/kg dose of peptide 1 was administered in six bi-weekly doses and compared to the results of mice treated with only cyclophosphamide, the control group. Mice were monitored individually for an endpoint of morbidity due to progression of the leukemia. All ten mice that received the control exited the study between days 21 and 28, offering a sensitive assay for activity.

[9] = test system: cytochrome P450 (CYP) enzymes; experiment: In vitro cytochrome P450 induction; assay type: in vitro ADME
Text: as §4, §5

[10] = Single-dose rat study of metabolism and elimination; assay type: in vivo
Text: as §6

[11] = 4-week monkey GLP toxicity study, twice-weekly IV dosing (toxicity and toxicokinetics); assay type: in vivo, monkeys
Text: as §7

rat bone marrow = experiment: In vivo micronucleus assay
Text: (§8) Peptide 1 was negative in genetic toxicology studies, including bacterial mutagenicity (Ames), chromosomal aberrations (human peripheral blood lymphocyte) and in vivo micronucleus (rat bone marrow) assays.

[12] = Pharmacokinetic/toxicokinetic studies after IV administration in mice, rats and monkeys; assay type: in vivo
Text: Pharmacokinetic studies characterize exposure kinetics following single IV administrations of peptide 1 in mice, rats and monkeys, including evaluations of two different dosing formulations in rats and monkeys. Using qualified liquid chromatography with tandem mass spectrometry (LC-MS-MS) methods for efficacy models and dose range-finding (DRF) studies, and validated methods for GLP safety studies, absorption was characterized in mice at the MED in efficacy models and in rats and monkeys at tolerated and non-tolerated doses in toxicology studies.

[13] = test system: bacterial mutagenicity (Ames); experiment: Bacterial mutagenicity (Ames)
Text: as §8

p21 = experiment: Multiplexed cytotoxicity assay: p21 induction in p53 wild-type hematopoietic cell lines; assay type: cell-based
Procedure: as §1

plasma protein = experiment: In vitro plasma protein binding; assay type: in vitro ADME, mouse, rat, dog, monkey, human; conditions: for free peptide 1 fraction: human and monkey plasma
Procedure: The in vitro protein binding of peptide 1 was evaluated over a range of concentrations in mouse, rat and monkey plasma, as well as human plasma samples from normal subjects and hypoalbuminemic patients.

BV-173 leukemia cells = experiment: Multiplexed cytotoxicity assay: relative cell count in BV-173 cells (wild type p53); assay type: cell-based; conditions: wild type p53, 72 h
Procedure: as §1, §3
Those that did were most often characterized by significant inductions of both caspase-3 and p21. Results with BV-173 leukemia cells (Table 16) are representative of the typical responses with these cell lines.

[14] = test system: HEL-92-1-7 leukemia cells; experiment: Multiplexed cytotoxicity assay: relative cell count in HEL-92-1-7 cells (mutant p53); assay type: cell-based; conditions: mutant p53, 72 h
Procedure: as §1, §2
Results with HEL-92-1-7 leukemia cells (Table 17) are representative of the typical responses with these cell lines.

[15] = in vivo, intravenous, 4-week rat GLP toxicity study, range over doses
[16] = in vivo, intravenous, 4-week monkey GLP toxicity study, range over doses

## CC(=O)N[C@@H](CC(C)C)C(=O)N[C@H](C(=O)N[C@@H](Cc1ccccc1)C(=O)N[C@]1(C)CCCCCC/C=C/CCC[C@@](C)(C(=O)N[C@@H](C)C(=O)N[C@@H](C)C(=O)N[C@@H](C)C(=O)N[C@@H](C)C(=O)N[C@@H](C)C(=O)N[C@H](C)C(N)=O)NC(=O)[C@H](CC(C)C)NC(=O)[C@H](CCC(N)=O)NC(=O)[C@H](C)NC(=O)[C@H](Cc2c[nH]c3ccccc23)NC(=O)[C@H](Cc2ccc(O)cc2)NC(=O)[C@H](CCC(=O)O)NC1=O)[C@@H](C)O [peptide 1] (Ac-LTF[R8]EYWAQL[S5]AAAAA[dA]-NH2; staple (E) 4-11)
[1]; cells with mutations of p53
  activity in in vitro liquid cancer cell growth assays: not in cells with mutations of p53
[1]; liquid cancer cell lines containing mutated p53
  character of cytotoxicity: cell cycle arrest without elevated apoptosis
[2]
  chromosomal aberrations: negative
[3]
  activity in in vitro liquid cancer cell growth assays: demonstrates activity
Activated caspase-3
  apoptotic response (activated caspase-3): robust apoptotic responses
[4]
  Genotoxicity: not observed
  Histopathology: bone marrow hypocellularity consistent with mild to moderate myelosuppression
  cardiotoxicity: not observed
  gastrointestinal toxicity: not observed
  immunogenicity: not observed
[5]
  inhibition of cytochrome P450 (CYP) isoforms: negligible; also recorded: not an inhibitor
[6]; in vitro, across species
  major biotransformation pathway: Proteolysis
[6]; mouse, rat, monkey, and human cryopreserved hepatocytes
  metabolite profile across species: same metabolite profile
[7]; [15]
  Cmax: 49.9 to 186 µg/mL
  clearance: 0.32 to 0.472 mL/min/kg
[7]; in vivo, intravenous, 4-week rat GLP toxicity study, range over doses, read-out: AUC0-∞
  AUC(0-inf): 90.5 to 562 µg·h/mL
[7]; in vivo, intravenous, rat, 10 mg/kg, read-out: AUC0-∞ at rat STD10
  AUC(0-inf): 562 µg·h/mL
[7]; rat, 4-week GLP toxicology study
  predominant metabolite exposure relative to peptide 1 AUC: 6%
[7]; rats
  dose proportionality of Cmax and AUC: linear, dose-proportional increases
[7]; rats, twice-weekly IV, 4 weeks
  STD10 (severely toxic dose for 10%): 10 mg/kg
[8]
  median overall survival: 40 days
[9]
  induction of cytochrome P450 (CYP) enzymes: negligible; also recorded: did not indicate any significant treatment-related effects
[10]
  predominant clearance pathway: hepatobiliary metabolism and elimination
[11]; 20 mg/kg, 4-week monkey GLP toxicity study
  exposure at the high-dose group: apparent plateau in exposure
[11]; 4-week monkey GLP toxicity study, different dosings
  platelet response: dose-dependent decreases in platelets with recovery
[11]; [16]
  Cmax: 133 to 562 µg/mL
  clearance: 0.108 to 0.23 mL/min/kg
  half-life: 3.7 to 6 h
[11]; in vivo, intravenous, 4-week monkey GLP toxicity study, range over doses, read-out: AUC0-∞
  AUC(0-inf): 813 to 1600 µg·h/mL
[11]; in vivo, intravenous, monkey, 5 mg/kg, read-out: AUC0-∞ at HNSTD in monkeys
  AUC(0-inf): 813 µg·h/mL
[11]; monkey, 4-week GLP toxicology study
  predominant metabolite plasma exposure relative to AUC: 10%
[11]; monkeys, lowest dose level 5 mg/kg
  significant thrombocytopenia: complete lack of significant thrombocytopenia
[11]; monkeys, mid- and high-dose levels
  significant thrombocytopenia: only one animal
[11]; monkeys, twice-weekly IV, 4 weeks
  HNSTD (highest non-severely toxic dose): 5 mg/kg
[11]; non-human primates
  dose proportionality of exposure: increased proportionally with dose
Rat bone marrow
  in vivo micronucleus: negative
[12]; rats and monkeys
  dose proportionality of exposure: increased proportionally with dose
  sex-based differences in PK: No significant sex-based differences
[12]; rats and monkeys, twice-weekly schedule
  accumulation following multiple doses: no accumulation
[12]; repeated twice-weekly dosing in rats or monkeys
  accumulation of the predominant metabolite: not observed
[13]
  bacterial mutagenicity (Ames): negative
p21
  induction of p21: significant induction of p21
Plasma protein; concentrations >200 μM
  free peptide 1 fraction: 12-14%
Plasma protein; concentrations up to 150 μM
  free peptide 1 fraction: 3-4%
Plasma protein; mouse and rat plasma up 250 µM
  fraction unbound: < 0.02
Plasma protein; mouse, rat, dog, monkey, human, plasma of mice, rats, dogs, monkeys, and humans
  fraction unbound: 0.02 to 0.08
BV-173 leukemia cells; 3.00E+00 μM
  Relative Cell Count (%) Mean: 15.0%
BV-173 leukemia cells; 3.00E+01 μM
  Relative Cell Count (%) Mean: 2.2%
BV-173 leukemia cells; 3.01E−01 μM
  Relative Cell Count (%) Mean: 31.8%
BV-173 leukemia cells; 3.01E−02 μM
  Relative Cell Count (%) Mean: 84.8%
BV-173 leukemia cells; 3.02E−03 μM
  Relative Cell Count (%) Mean: 99.9%
BV-173 leukemia cells; 9.49E+00 μM
  Relative Cell Count (%) Mean: 4.3%
BV-173 leukemia cells; 9.51E−01 μM
  Relative Cell Count (%) Mean: 14.3%
BV-173 leukemia cells; 9.52E−02 μM
  Relative Cell Count (%) Mean: 64.4%
BV-173 leukemia cells; 9.53E−03 μM
  Relative Cell Count (%) Mean: 94.9%
BV-173 leukemia cells; 9.55E−04 μM
  Relative Cell Count (%) Mean: 100.8%
[14]; 3.00E+00 μM
  Relative Cell Count (%) Mean: 79.2%
[14]; 3.00E+01 μM
  Relative Cell Count (%) Mean: 67.9%
[14]; 3.01E−01 μM
  Relative Cell Count (%) Mean: 77.8%
[14]; 3.01E−02 μM
  Relative Cell Count (%) Mean: 89.8%
[14]; 3.02E−03 μM
  Relative Cell Count (%) Mean: 96.8%
[14]; 9.49E+00 μM
  Relative Cell Count (%) Mean: 76.9%
[14]; 9.51E−01 μM
  Relative Cell Count (%) Mean: 81.9%
[14]; 9.52E−02 μM
  Relative Cell Count (%) Mean: 89.7%
[14]; 9.53E−03 μM
  Relative Cell Count (%) Mean: 98.2%
[14]; 9.55E−04 μM
  Relative Cell Count (%) Mean: 98.5%
